These results are taken from ChEMBL document CHEMBL5291721, “A preclinical secondary pharmacology resource illuminates target-adverse drug reaction associations of marketed drugs” (Nat Commun, 2023).

A word on the AC50: it is the concentration giving half of the maximal activity seen.

Among the targets are Motilin receptor (Homo sapiens, UniProt O43193); Mu-type opioid receptor (Homo sapiens, UniProt P35372); D(3) dopamine receptor (Homo sapiens, UniProt P35462).
The target of assay [1] is T1, Alpha-2A adrenergic receptor (Homo sapiens, UniProt P08913).
T1 sequence (P08913 whole entry): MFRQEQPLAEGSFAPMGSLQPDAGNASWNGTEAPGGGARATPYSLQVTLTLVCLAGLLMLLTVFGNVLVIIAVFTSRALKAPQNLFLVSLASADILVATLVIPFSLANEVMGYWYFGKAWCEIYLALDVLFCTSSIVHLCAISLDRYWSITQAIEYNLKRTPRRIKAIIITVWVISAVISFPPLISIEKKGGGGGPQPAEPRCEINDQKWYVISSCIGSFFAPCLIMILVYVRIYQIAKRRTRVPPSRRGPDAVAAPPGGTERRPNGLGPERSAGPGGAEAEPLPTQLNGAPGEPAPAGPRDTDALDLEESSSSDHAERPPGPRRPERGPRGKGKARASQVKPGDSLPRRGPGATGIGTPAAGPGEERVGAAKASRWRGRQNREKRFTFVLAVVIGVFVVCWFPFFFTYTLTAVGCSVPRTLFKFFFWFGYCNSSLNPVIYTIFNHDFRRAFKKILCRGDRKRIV

The target of the next assay is Prothrombin (Homo sapiens, UniProt P00734). In kind it is functional.
The target of assay [2] is Gamma-aminobutyric acid receptor subunit alpha-1/alpha-2/beta-2/gamma-2 (Homo sapiens, UniProt P14867+P18507+P47869+P47870). In kind it is protein-complex assay.
Assay [3] has as its target T2, Muscarinic acetylcholine receptor M2 (Homo sapiens, UniProt P08172).
T2 sequence (P08172 whole entry): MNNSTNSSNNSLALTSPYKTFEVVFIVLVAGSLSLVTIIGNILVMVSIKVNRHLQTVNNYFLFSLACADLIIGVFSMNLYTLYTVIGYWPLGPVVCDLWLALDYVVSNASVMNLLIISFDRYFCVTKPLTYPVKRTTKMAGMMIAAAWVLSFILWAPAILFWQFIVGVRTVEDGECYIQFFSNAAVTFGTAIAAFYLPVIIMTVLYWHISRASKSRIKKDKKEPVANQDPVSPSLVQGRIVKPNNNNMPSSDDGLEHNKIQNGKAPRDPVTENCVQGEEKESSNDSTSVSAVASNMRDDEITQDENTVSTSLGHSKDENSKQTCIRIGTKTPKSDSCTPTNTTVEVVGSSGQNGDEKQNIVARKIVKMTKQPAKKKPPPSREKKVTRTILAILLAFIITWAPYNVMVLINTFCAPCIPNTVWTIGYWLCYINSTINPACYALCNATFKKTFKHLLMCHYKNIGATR
In kind it is functional, cell-based.

In a further assay the target is Histamine H2 receptor (Homo sapiens, UniProt P25021). In kind it is functional, cell-based.
Assay [4] has as its target T3, 5-hydroxytryptamine receptor 1A (Homo sapiens, UniProt P08908).
T3 sequence (P08908 whole entry): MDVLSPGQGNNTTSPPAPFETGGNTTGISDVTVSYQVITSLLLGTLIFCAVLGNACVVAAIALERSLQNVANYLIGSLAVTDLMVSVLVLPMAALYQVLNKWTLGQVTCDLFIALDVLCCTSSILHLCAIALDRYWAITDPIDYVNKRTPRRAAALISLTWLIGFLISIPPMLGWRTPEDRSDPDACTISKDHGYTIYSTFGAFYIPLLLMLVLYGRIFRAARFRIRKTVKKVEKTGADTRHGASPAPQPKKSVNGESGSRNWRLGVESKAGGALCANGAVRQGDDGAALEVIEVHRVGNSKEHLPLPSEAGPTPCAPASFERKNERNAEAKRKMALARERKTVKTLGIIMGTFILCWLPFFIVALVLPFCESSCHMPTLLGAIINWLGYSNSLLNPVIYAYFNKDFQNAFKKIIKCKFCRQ
In kind it is functional, cell-based.

For assay [5], the target named is 3',5'-cyclic-AMP phosphodiesterase 4D (Homo sapiens, UniProt Q08499). In kind it is functional.
In another assay the target is T4, Progesterone receptor (Homo sapiens, UniProt P06401).
T4 sequence (P06401 whole entry): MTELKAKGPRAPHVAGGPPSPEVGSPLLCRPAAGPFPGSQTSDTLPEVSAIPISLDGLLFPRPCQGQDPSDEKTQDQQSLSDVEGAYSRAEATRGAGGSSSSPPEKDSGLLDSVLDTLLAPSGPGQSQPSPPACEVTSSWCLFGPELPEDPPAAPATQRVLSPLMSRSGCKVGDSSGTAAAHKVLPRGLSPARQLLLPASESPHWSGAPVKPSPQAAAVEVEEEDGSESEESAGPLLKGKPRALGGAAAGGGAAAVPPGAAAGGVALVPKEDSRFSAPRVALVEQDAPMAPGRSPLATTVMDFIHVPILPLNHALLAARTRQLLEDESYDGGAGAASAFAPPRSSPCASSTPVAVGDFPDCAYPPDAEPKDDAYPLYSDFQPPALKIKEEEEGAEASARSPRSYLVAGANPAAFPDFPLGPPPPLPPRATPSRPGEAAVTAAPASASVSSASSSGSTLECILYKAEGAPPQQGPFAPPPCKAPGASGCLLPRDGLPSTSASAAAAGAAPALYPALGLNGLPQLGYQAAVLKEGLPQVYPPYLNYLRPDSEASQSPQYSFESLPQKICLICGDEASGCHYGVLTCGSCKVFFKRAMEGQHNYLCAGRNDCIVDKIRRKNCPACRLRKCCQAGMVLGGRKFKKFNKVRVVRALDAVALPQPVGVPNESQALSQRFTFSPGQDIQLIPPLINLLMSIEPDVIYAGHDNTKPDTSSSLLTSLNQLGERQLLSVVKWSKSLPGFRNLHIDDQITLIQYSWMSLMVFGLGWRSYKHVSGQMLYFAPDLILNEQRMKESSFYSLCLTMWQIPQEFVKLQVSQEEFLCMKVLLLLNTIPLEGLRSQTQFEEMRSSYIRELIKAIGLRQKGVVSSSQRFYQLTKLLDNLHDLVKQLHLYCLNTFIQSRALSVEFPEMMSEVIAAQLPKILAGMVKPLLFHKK
Type of assay: functional.

Bounds are passed on as bounds.
Further: assay procedure not described here.

Sequence of Mu-type opioid receptor (P35372 whole entry): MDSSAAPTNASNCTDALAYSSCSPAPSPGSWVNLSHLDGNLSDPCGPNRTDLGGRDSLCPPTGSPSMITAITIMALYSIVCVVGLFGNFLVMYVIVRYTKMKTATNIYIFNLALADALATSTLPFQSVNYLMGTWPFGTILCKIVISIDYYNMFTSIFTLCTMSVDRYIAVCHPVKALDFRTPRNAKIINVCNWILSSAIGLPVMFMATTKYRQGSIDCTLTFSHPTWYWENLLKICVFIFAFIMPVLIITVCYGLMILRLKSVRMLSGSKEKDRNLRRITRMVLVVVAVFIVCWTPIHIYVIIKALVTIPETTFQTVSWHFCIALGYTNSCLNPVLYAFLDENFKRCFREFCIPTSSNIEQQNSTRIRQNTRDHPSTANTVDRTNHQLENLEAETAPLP
Sequence of Motilin receptor (O43193 whole entry): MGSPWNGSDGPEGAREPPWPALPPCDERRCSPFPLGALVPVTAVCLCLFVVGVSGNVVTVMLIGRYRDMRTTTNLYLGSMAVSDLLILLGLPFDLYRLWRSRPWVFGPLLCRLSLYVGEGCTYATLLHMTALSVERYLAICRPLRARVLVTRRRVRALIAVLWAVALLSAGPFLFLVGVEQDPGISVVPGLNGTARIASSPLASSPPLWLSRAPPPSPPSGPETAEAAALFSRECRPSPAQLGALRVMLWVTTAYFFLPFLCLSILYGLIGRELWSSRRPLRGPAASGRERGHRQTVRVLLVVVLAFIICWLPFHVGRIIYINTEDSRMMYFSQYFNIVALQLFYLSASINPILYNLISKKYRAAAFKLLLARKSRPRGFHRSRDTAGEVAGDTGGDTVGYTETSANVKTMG
Sequence of 3',5'-cyclic-AMP phosphodiesterase 4D (Q08499 whole entry): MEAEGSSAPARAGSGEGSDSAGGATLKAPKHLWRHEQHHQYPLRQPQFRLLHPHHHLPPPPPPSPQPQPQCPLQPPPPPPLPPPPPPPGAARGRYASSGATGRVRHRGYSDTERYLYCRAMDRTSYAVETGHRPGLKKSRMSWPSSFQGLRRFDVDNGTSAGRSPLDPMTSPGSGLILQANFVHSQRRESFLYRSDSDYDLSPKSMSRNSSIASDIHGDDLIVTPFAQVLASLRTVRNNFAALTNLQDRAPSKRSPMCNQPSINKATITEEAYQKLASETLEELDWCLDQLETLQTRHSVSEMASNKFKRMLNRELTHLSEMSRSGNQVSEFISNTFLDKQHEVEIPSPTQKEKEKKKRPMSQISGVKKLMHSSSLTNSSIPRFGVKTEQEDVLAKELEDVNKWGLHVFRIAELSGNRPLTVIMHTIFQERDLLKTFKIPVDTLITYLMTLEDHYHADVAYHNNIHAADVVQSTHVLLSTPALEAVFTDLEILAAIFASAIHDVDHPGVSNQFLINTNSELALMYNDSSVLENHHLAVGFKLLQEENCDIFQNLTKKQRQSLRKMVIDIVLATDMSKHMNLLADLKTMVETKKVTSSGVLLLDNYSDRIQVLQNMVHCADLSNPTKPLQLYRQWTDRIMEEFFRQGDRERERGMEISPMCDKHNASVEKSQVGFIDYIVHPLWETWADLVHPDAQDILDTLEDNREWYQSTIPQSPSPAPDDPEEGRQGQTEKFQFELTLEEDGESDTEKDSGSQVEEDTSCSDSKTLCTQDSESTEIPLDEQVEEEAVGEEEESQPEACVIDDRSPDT
Sequence of Histamine H2 receptor (P25021 whole entry): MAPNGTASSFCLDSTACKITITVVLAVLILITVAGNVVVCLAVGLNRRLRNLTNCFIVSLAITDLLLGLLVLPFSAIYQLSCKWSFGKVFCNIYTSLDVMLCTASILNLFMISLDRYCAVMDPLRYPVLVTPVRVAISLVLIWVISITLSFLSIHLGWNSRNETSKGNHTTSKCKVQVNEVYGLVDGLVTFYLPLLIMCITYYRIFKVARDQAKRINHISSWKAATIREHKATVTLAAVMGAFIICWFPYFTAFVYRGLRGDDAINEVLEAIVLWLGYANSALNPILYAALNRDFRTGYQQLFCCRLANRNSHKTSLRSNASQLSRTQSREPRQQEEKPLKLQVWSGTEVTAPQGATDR
Sequence of Gamma-aminobutyric acid receptor subunit alpha-1/alpha-2/beta-2/gamma-2 (P14867 whole entry): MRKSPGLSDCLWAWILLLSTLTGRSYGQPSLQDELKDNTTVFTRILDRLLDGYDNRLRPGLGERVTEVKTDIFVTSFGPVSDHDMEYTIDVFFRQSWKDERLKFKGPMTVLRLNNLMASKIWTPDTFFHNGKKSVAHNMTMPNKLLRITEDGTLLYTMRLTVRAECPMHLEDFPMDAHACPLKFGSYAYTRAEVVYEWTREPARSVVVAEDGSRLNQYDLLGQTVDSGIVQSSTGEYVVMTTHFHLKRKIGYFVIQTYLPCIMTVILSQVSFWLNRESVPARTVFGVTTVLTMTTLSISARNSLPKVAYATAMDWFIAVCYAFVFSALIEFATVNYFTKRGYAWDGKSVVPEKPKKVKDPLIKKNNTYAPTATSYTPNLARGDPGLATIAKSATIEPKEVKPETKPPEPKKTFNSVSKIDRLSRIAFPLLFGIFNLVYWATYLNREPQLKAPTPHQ
Sequence of Gamma-aminobutyric acid receptor subunit alpha-1/alpha-2/beta-2/gamma-2 (P47870 whole entry): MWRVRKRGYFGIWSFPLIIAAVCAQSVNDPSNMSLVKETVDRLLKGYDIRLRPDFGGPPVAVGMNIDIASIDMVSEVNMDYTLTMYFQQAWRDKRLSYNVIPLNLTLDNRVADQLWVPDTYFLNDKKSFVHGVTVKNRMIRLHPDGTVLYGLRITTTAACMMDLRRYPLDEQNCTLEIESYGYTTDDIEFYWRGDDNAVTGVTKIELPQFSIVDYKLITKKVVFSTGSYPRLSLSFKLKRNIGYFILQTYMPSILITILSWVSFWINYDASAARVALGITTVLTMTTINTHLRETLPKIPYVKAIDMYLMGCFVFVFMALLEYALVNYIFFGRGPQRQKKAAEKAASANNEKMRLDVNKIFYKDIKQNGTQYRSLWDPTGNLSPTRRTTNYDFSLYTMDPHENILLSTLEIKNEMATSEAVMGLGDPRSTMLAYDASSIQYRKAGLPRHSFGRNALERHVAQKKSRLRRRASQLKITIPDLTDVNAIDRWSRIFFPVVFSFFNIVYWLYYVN
Sequence of Gamma-aminobutyric acid receptor subunit alpha-1/alpha-2/beta-2/gamma-2 (P18507 whole entry): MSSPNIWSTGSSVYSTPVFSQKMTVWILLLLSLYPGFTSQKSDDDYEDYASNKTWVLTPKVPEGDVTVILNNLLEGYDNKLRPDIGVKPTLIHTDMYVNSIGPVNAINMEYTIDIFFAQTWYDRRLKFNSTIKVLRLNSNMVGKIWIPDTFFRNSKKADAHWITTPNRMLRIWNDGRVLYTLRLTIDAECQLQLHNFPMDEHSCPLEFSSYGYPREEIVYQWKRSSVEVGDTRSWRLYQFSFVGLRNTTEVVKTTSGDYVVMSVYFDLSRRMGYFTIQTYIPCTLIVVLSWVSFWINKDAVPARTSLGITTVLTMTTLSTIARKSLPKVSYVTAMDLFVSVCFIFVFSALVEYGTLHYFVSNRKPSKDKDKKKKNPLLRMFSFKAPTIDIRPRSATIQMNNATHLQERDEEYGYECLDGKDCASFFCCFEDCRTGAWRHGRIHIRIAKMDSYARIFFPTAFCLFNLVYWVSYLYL
Sequence of Gamma-aminobutyric acid receptor subunit alpha-1/alpha-2/beta-2/gamma-2 (P47869 whole entry): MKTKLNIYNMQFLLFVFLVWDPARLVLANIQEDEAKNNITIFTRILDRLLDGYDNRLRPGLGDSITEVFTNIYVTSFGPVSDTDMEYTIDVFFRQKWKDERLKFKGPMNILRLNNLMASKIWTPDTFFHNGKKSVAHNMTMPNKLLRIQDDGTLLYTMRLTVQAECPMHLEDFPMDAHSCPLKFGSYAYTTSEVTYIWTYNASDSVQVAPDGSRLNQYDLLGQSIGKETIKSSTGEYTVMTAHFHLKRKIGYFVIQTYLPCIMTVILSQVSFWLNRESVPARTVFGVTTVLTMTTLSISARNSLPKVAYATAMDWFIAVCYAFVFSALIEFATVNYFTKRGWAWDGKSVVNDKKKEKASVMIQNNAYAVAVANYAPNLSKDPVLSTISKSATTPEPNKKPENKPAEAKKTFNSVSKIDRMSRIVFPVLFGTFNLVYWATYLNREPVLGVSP
Sequence of D(3) dopamine receptor (P35462 whole entry): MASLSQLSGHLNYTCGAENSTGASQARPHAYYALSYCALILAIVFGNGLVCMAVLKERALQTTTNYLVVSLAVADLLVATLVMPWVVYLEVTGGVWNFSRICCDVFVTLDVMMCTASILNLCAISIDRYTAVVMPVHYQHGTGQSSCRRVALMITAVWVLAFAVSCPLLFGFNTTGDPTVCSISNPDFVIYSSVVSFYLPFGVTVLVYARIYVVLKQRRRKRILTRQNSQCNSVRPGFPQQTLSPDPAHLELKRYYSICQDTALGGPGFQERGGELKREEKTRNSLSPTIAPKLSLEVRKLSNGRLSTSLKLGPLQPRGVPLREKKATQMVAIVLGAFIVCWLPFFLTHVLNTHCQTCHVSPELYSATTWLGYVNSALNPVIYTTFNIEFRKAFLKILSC

Take `COc1nccnc1NS(=O)(=O)c1ccc(N)cc1`: the AC50 (in [1]; on Prothrombin; in assay [2]) was over 30 µM each time.
For the compound `CN(C)CCCN1C(=O)c2cc([N+](=O)[O-])ccc2Oc2ccccc21`, the AC50 in [1] was 28.4 µM; at Prothrombin, over 30 µM; in assay [2] it was over 30 µM.
Take `O=S(=O)(O)CCS` [2-MERCAPTOETHANESULFONIC ACID]: the AC50 (in [1]; on Prothrombin; in assay [2]) was over 30 µM each time.
Turning to `CC1(C)S[C@@H]2[C@H](NC(=O)[C@H](N)c3ccc(O)cc3)C(=O)N2[C@H]1C(=O)O` [AMOXICILLIN], the AC50 in assay [3] was over 30 µM; on Histamine H2 receptor it was over 30 µM; in [4], over 10 µM; at Motilin receptor, over 30 µM; in assay [5] it was over 30 µM; on Progesterone receptor it was over 30 µM. Also, the AC50 at Mu-type opioid receptor is over 10 µM; at D(3) dopamine receptor, over 30 µM.
For the compound `O=C(O)COc1nn(Cc2ccccc2)c2ccccc12` [BENDAZAC], the AC50 (in assay [1]; at Prothrombin; in assay [2]) was over 30 µM throughout.
In the case of `O=C(O)CCCc1ccc(N(CCCl)CCCl)cc1` [CHLORAMBUCIL], the results for the concentration at half-maximal activity (AC50) (in assay [1]; at Prothrombin; in assay [2]) were over 30 µM, over 30 µM and 22.1 µM, respectively.
On to `COC(=O)[C@H](c1ccccc1Cl)N1CCc2sccc2C1` [CLOPIDOGREL], for which the AC50 (in [3]; at Histamine H2 receptor; in assay [4]; on Motilin receptor; in assay [5]; on Progesterone receptor) was over 30 µM each time. Also, the AC50 was 13 µM at Mu-type opioid receptor and over 30 µM on D(3) dopamine receptor.
As to `CN(CC(=O)O)C(=N)N` [CREATINE], the AC50 (in [1]; at Prothrombin; in assay [2]) was over 30 µM throughout.
For `Cn1c(=O)c2c(ncn2CC(O)CO)n(C)c1=O` (stereo not given) [DYPHYLLINE], the AC50 (in assay [1]; on Prothrombin; in assay [2]) was over 30 µM throughout.
As to `Cc1cc2c(OCC(O)CNC(C)C)cccc2[nH]1` (stereo not given) [MEPINDOLOL], the AC50 in [1] was 12.3 µM; on Prothrombin, over 30 µM; in assay [2], over 30 µM.
Regarding `CCOc1cc(N)c(Cl)cc1C(=O)NCC1CN(Cc2ccc(F)cc2)CCO1` (stereo not given) [MOSAPRIDE], the figures for the AC50 (in [1]; at Prothrombin; in assay [2]) were 3.01 µM, over 30 µM and over 30 µM, respectively.
As to `CCOc1ccc2ccccc2c1C(=O)N[C@@H]1C(=O)N2[C@@H]1SC(C)(C)[C@@H]2C(=O)O` [NAFCILLIN], the AC50 (in assay [1]; at Prothrombin; in assay [2]) was over 30 µM in each case.
Consider `CN1CCC[C@H]1c1cccnc1` [NICOTINE], for which the AC50 (in [1]; on Prothrombin; in [2]) was over 30 µM throughout.
Consider `CCCCCCCCCCC[C@@H](C[C@@H]1OC(=O)[C@H]1CCCCCC)OC(=O)[C@H](CC(C)C)NC=O` [ORLISTAT], for which the AC50 (in [1]; at Prothrombin; in [2]) was over 30 µM in each case.
Regarding `O=C1[C@H]2CCCC[C@H]2C(=O)N1CCCCN1CCN(c2nsc3ccccc23)CC1` [PEROSPIRONE], the AC50 was 0.22 µM in assay [1], over 30 µM at Prothrombin and over 30 µM in assay [2].
Consider `CN(C)CCC(c1ccccc1)c1ccccn1` (stereo not given) [PHENIRAMINE], for which the AC50 (in assay [1]; at Prothrombin; in assay [2]) was over 30 µM throughout.
In the case of `O=C1NC(=O)C(c2ccccc2)(c2ccccc2)N1` [PHENYTOIN], the AC50 was over 30 µM in [3]; over 10 µM at Histamine H2 receptor; over 30 µM in assay [4]; over 30 µM at Motilin receptor; over 30 µM in assay [5]; over 30 µM at Progesterone receptor. Further, the concentration at half-maximal activity (AC50) on Mu-type opioid receptor and on D(3) dopamine receptor was over 30 µM in each case.
For the compound `CC(C)(C)C(=O)NCCCC(=O)O` [PIVAGABINE], the AC50 (in assay [1]; at Prothrombin; in [2]) was over 30 µM throughout.
On to `CC(C)C[C@H](CN)CC(=O)O` [PREGABALIN], for which the AC50 is over 30 µM in assay [3]; over 10 µM at Histamine H2 receptor; over 30 µM in [4]; over 30 µM on Motilin receptor; over 30 µM in [5]; over 30 µM at Progesterone receptor. In addition, the AC50 on Mu-type opioid receptor and on D(3) dopamine receptor was over 30 µM in each case.
In the case of `CC(C)[N+](C)(CCOC(=O)C1c2ccccc2Oc2ccccc21)C(C)C` [PROPANTHELINE], the AC50 (in assay [1]; on Prothrombin; in assay [2]) was over 30 µM each time.
Consider `CN(C)C(=O)c1nc(CNC(=O)CN)n(-c2ccc(Cl)cc2C(=O)c2ccccc2Cl)n1` [RILMAZAFONE], for which the AC50 (in [1]; on Prothrombin; in assay [2]) was over 30 µM in each case.
As to `CC(C)N(CCCCOCC(=O)NS(C)(=O)=O)c1cnc(-c2ccccc2)c(-c2ccccc2)n1` [SELEXIPAG], the AC50 in assay [3] is over 30 µM; on Histamine H2 receptor, over 30 µM; in [4] it was 24 µM; at Motilin receptor, over 30 µM; in assay [5], 4.81 µM; at Progesterone receptor, over 30 µM. Besides, the AC50 on Mu-type opioid receptor and on D(3) dopamine receptor was over 30 µM throughout.
Regarding `NC(=O)NS(=O)(=O)c1ccc(N)cc1` [SULFACARBAMIDE], the AC50 (in assay [1]; at Prothrombin; in assay [2]) was over 30 µM each time.
For `CCCCCCCCNC(C)C(O)c1ccc(SC(C)C)cc1` (stereo not given) [SULOCTIDIL], the results for the AC50 (in assay [1]; at Prothrombin; in assay [2]) were 6.75 µM, over 30 µM and over 10 µM, respectively.
For the compound `CCCCCCCCCCCCCCCC(=O)OC/C=C(C)/C=C/C=C(C)/C=C/C1=C(C)CCCC1(C)C` [VITAMIN A PALMITATE], the AC50 (in assay [1]; on Prothrombin; in [2]) was over 30 µM throughout.
